Measured values from PubChem BioAssay AID2060498 (Molecular Pharmacology Branch, DTP, NCI, 2025).

System: 171881-019-R-J1-PDC tumor spheroids, viability
Test: Anticancer human tumor 171881-019-R-J1-PDC patient-derived invasive breast carcinoma cell line growth inhibition [GQUAD]
Details: spheroids with HUVEC and MSC; for IC50: curve of first compound; for viability, T/C: stronger effect = lower value
Text: DNA G-quadruplex Stabilizer Agents in Combinations in Complex Spheroids
A high-throughput screen of multi-cell type tumor spheroids was designed to identify active combinations of DNA G-quadruplex stabilizer agents and targeted small molecules. Complex spheroids include a stromal component modeled by human endothelial cells (HUVEC) and fibroblasts modeled by human mesenchymal stem cells (MSCs). The concentration ranges selected for each drug and investigational agent were based upon clinically achievable concentrations if the clinical Cmax of the agent was known.
Compounds. The drugs and investigational agents: pidnarulex (CX-5461; NSC782164), APTO-253 (NSC789042), BRACO-19 (NSC847499), peposertib (NSC802822), ceralasertib (NSC780249), elimusertib (NSC800525), camonsertib (NSC841442), AZD-1390 (NSC803789), olaparib (NSC753686), talazoparib (NSC767125), ART-558 (NSC835418), sotorasib (NSC818433), MRTX-1133 (NSC836407), SN-38 (NSC673596), topotecan (NSC609699), etoposide (NSC141540), doxorubicin (NSC123127), gemcitabine (NSC613327), 5-fluorouracil (NSC19893), paclitaxel (NSC125973), vemurafenib (NSC761431), panobinostat (NSC761190), R-306465 (JNJ-16241199; NSC773264), adavosertib (NSC754352), TP-3654 (NSC805149), carboplatin (NSC241240), KSQ-4279 (NSC840948), and staurosporine (NSC755774) were obtained from the National Cancer Institute (NCI) Developmental Therapeutics Program Chemical Repository (34). The FDA-approved anticancer drug set is available from the NCI Developmental Therapeutics Program. […] The stock solutions were prepared in dimethyl sulfoxide (DMSO, Sigma-Aldrich, St. Louis, MO, cat. D2650) at 800-fold the tested concentration and stored at -70 degrees C prior to their use. All drugs and investigational agents were tested over a range starting from a high concentration at or near the clinical Cmax and decreasing in half-log increments. If the clinical Cmax for an agent had not been determined, the highest concentration tested was 10 microM.
2.3 Cell Culture. All cells were maintained in an incubator at 37 degrees C and 5% CO2 with 95% humidity. The PDC lines were cultured according to standard operating procedures established by the NCI PDMR. All PDCs were thawed and cultured in Matrigel-coated flasks prepared with a working solution of 1X Ham's F-12 nutrient mix, without supplementation (Invitrogen, cat. 11765054), 100 U/mL penicillin-streptomycin (Invitrogen, cat. 15140122), and 2.5% Matrigel (Corning Inc., cat. 354248) for the first three passages. The 857933-349-R-J2-PDC line was cultured in 6C/Colon 1B media, which includes advanced DMEM/F-12 (Thermo Fisher Scientific, cat. 12634028), 10 mM HEPES (Thermo Fisher Scientific, cat. 15630080), 1X GlutaMAX supplement (Thermo Fisher Scientific, cat. 35050061), 0.1 mg/mL primocin (InvivoGen, cat. ant-pm-2), 10% defined fetal bovine serum, heat inactivated (HyClone Laboratories Inc., cat. SH30070.03HI), 50% L-WRN conditioned media (ATCC, cat. CRL-3276), 1.25 mM N-Acetyl-L-cysteine (Sigma-Aldrich, cat. A9165), 10 mM nicotinamide (Sigma-Aldrich, cat. N0636), 1X B-27 supplement (Thermo Fisher Scientific, cat. 17504044), 1X N-2 supplement (Thermo Fisher Scientific, cat. 17502048), 10 microM Y-27632 dihydrochloride (Tocris Bioscience, cat. 1254), and 50 ng/mL human EGF recombinant protein (Thermo Fisher Scientific, cat. PHG0311). The 485176-168-R4-J1-PDC line was cultured in Panc media, which includes all 6C/Colon 1B media components plus 100 ng/mL human FGF-10 (Thermo Fisher Scientific, cat. 100-26), 500 nM SB-431542 (Selleckchem, cat. S1067), and gastrin (Tocris, cat. 3006).
[…]

[1] = second compound 0.0316 µM, first compound 0.0316 µM
[2] = second compound 0.0316 µM, first compound 0.1 µM
[3] = second compound 0.0316 µM, first compound 0.316 µM
[4] = second compound 0.0316 µM, first compound 1 µM
[5] = second compound 0.0316 µM, first compound 3.16 µM
[6] = second compound 0.0316 µM, first compound 10 µM
[7] = second compound 0.1 µM, first compound 0.0316 µM
[8] = second compound 0.1 µM, first compound 0.1 µM
[9] = second compound 0.1 µM, first compound 0.316 µM
[10] = second compound 0.1 µM, first compound 1 µM
[11] = second compound 0.1 µM, first compound 3.16 µM
[12] = second compound 0.1 µM, first compound 10 µM
[13] = second compound 0.316 µM, first compound 0.0316 µM
[14] = second compound 0.316 µM, first compound 0.1 µM
[15] = second compound 0.316 µM, first compound 0.316 µM
[16] = second compound 0.316 µM, first compound 1 µM
[17] = second compound 0.316 µM, first compound 3.16 µM
[18] = second compound 0.316 µM, first compound 10 µM
[19] = second compound 1 µM, first compound 0.0316 µM
[20] = second compound 1 µM, first compound 0.1 µM
[21] = second compound 1 µM, first compound 0.316 µM
[22] = second compound 1 µM, first compound 1 µM
[23] = second compound 1 µM, first compound 3.16 µM
[24] = second compound 1 µM, first compound 10 µM
[25] = second compound 3.16 µM, first compound 0.0316 µM
[26] = second compound 3.16 µM, first compound 0.1 µM
[27] = second compound 3.16 µM, first compound 0.316 µM
[28] = second compound 3.16 µM, first compound 1 µM
[29] = second compound 3.16 µM, first compound 3.16 µM
[30] = second compound 3.16 µM, first compound 10 µM
[31] = second compound 10 µM, first compound 0.0316 µM
[32] = second compound 10 µM, first compound 0.1 µM
[33] = second compound 10 µM, first compound 0.316 µM
[34] = second compound 10 µM, first compound 1 µM
[35] = second compound 10 µM, first compound 3.16 µM
[36] = second compound 10 µM, first compound 10 µM
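Further: spheroids exposed to compounds for 7 days.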
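Wherever viability, T/C is given: 100% = DMSO vehicle control viability.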

C#Cc1c(F)ccc2cc(O)cc(-c3ncc4c(N5CC6CCC(C5)N6)nc(OCC56CCCN5CC(F)C6)nc4c3F)c12 (centres undefined) + Cc1[nH]c2ccc(F)cc2c1-c1nc2c3cccnc3c3ncccc3c2[nH]1
IC50 (second compound 0.0316 µM): 599 nM | IC50 (second compound 0.1 µM): 573 nM | IC50 (second compound 0.316 µM): 282 nM | IC50 (second compound 1 µM): 44.9 nM | IC50 (second compound 3.16 µM): < 31.6 nM | IC50 (second compound 10 µM): < 31.6 nM | viability, T/C [1]: 103% | viability, T/C [2]: 69.3% | viability, T/C [3]: 60.6% | viability, T/C [4]: 42.9% | viability, T/C [5]: 24.6% | viability, T/C [6]: 7.54% | viability, T/C [7]: 92.8% | viability, T/C [8]: 75.1% | viability, T/C [9]: 59% | viability, T/C [10]: 41.2% | viability, T/C [11]: 25.1% | viability, T/C [12]: 6.93% | viability, T/C [13]: 82.7% | viability, T/C [14]: 62.3% | viability, T/C [15]: 46.7% | viability, T/C [16]: 31% | viability, T/C [17]: 30% | viability, T/C [18]: 4.2% | viability, T/C [19]: 55.6% | viability, T/C [20]: 39.8% | viability, T/C [21]: 36.8% | viability, T/C [22]: 23.4% | viability, T/C [23]: 22.9% | viability, T/C [24]: 0.29% | viability, T/C [25]: 6.7% | viability, T/C [26]: 3.48% | viability, T/C [27]: 3.47% | viability, T/C [28]: 2.21% | viability, T/C [29]: 1.89% | viability, T/C [30]: 0.17% | viability, T/C [31]: 23.8% | viability, T/C [32]: 27.4% | viability, T/C [33]: 15.8% | viability, T/C [34]: 15% | viability, T/C [35]: 6.1% | viability, T/C [36]: 0.16%

CC(=O)O[C@H]1C(=O)[C@@]2(C)[C@H]([C@H](OC(=O)c3ccccc3)[C@]3(O)C[C@H](OC(=O)[C@H](O)[C@@H](NC(=O)c4ccccc4)c4ccccc4)C(C)=C1C3(C)C)[C@]1(OC(C)=O)CO[C@@H]1C[C@@H]2O + Cc1[nH]c2ccc(F)cc2c1-c1nc2c3cccnc3c3ncccc3c2[nH]1
IC50 (second compound 0.0316 µM): < 31.6 nM | IC50 (second compound 0.1 µM): 36.8 nM | IC50 (second compound 0.316 µM): 32.2 nM | IC50 (second compound 1 µM): < 31.6 nM | IC50 (second compound 3.16 µM): < 31.6 nM | IC50 (second compound 10 µM): < 31.6 nM | viability, T/C [1]: 52.2% | viability, T/C [2]: 32.3% | viability, T/C [3]: 35.5% | viability, T/C [4]: 30.8% | viability, T/C [5]: 28.9% | viability, T/C [6]: 30.1% | viability, T/C [7]: 52.5% | viability, T/C [8]: 33.2% | viability, T/C [9]: 29.5% | viability, T/C [10]: 31% | viability, T/C [11]: 28.3% | viability, T/C [12]: 28.7% | viability, T/C [13]: 50.2% | viability, T/C [14]: 35.5% | viability, T/C [15]: 28.8% | viability, T/C [16]: 29.5% | viability, T/C [17]: 29.7% | viability, T/C [18]: 26.8% | viability, T/C [19]: 41.2% | viability, T/C [20]: 30.2% | viability, T/C [21]: 32.1% | viability, T/C [22]: 24.9% | viability, T/C [23]: 29.7% | viability, T/C [24]: 24.6% | viability, T/C [25]: 6.75% | viability, T/C [26]: 4.71% | viability, T/C [27]: 4.42% | viability, T/C [28]: 3.51% | viability, T/C [29]: 5.16% | viability, T/C [30]: 3.23% | viability, T/C [31]: 27.3% | viability, T/C [32]: 25.1% | viability, T/C [33]: 17.3% | viability, T/C [34]: 21.1% | viability, T/C [35]: 23.2% | viability, T/C [36]: 18.3%
